The test system of assay [1] is human Cav3.1 Cav3.2 or Cav3.3 channel. Put plainly: In vitro assay T channel (FLIPR, Ca2+-induced fluorescence). The format is cell-based. Conditions: HEK293 cells expressing human Cav3.1 Cav3.2 or Cav3.3; 10 mM Ca2+; determined up to 10 μM; read-out: T channel antagonistic activity IC50. On the procedure: Human embryonic kidney (HEK293) cells expressing the human Cav3.1 Cav3.2 or Cav3.3 channel, respectively, are grown in culture medium (DMEM containing 10% heat-inactivated fetal calf serum (FCS), 100 U/ml penicillin, 100 μg/ml streptomycin and 1 mg/ml G418). The cells are seeded at 20.000 cells/well into 384-well black clear bottom sterile plates (poly-L-lysine-coated, Becton Dickinson). The seeded plates are incubated overnight at 37° C. in 5% CO2. The Ca^2+ solution is prepared as 100 mM stock solution in 100 mM tetraethylammoniumchloride (TEA-chloride), 50 mM HEPES, 2.5 mM CaCl2, 5 mM KCl, 1 mM MgCl2, adjusted to pH 7.2 with TEA-hydroxide, for use in the assay at a final concentration of 10 mM. […] Fluorescence is measured for each well at 2 second intervals for 8 minutes, and the area under the curve of each fluorescence peak is compared to the area of the fluorescence peak induced by 10 mM Ca^2+ with vehicle in place of antagonist.

Assay [2] concerns isolated mouse hearts. Put plainly: Effect on isolated hearts according to the Langendorff method (Lgdff). How it is done:
The compounds were tested for their potential to reduce blood pressure and their effect on the contractility of the heart muscle. EC50 values on isolated mouse hearts were determined according to Literature (Doring H J., The isolated perfused heart according to Langendorff technique—function—application, Physiol. Bohemoslov. 1990, 39(6), 481-504; Kligfield P, Homer H, Brachfeld N., A model of graded ischemia in the isolated perfused rat heart, J. Appl. Physiol. 1976 June, 40(6), 1004-8).
15 example compounds have been measured using the procedure described above for the Langendorff experiment.

As usually defined, the IC50 is the concentration at which inhibition is half-maximal. A word on the EC50: it is the concentration giving half of the maximal effect. Read a low EC50 as a more potent agent.

Regarding `CC(C)C(=O)O[C@@]1(CCN(C)CCCc2nc3ccccc3[nH]2)C[C@H]2CC[C@@H]1c1cc(F)c(F)cc12` (relative stereo) [Example 9A, rac-Isobutyric acid (1R*,8R*,9R*)-9-(2-{[3-(1H-benzoimidazol-2-yl)-propyl]-methyl-amino}-ethyl)-4,5-difluoro-tricyclo[6.2.2.0^2,7]dodeca-2,4,6-trien-9-yl ester], in assay [1], the IC50 stood at 1400 nM. Besides, in assay [2], a half-maximal response (EC50) required 30 nM.

`COc1cccc2[nH]c(CCCN(C)CC[C@@]3(OC(=O)CC(F)(F)F)C[C@@H]4CCC[C@H]3c3ccccc34)nc12` [Example 13B, 3,3,3-Trifluoro-propionic acid (1S,8S,12S)-12-(2-{[3-(4-methoxy-1H-benzoimidazol-2-yl)-propyl]-methyl-amino}-ethyl)-tricyclo[6.3.2.02,7]trideca-2,4,6-trien-12-yl ester or 3,3,3-trifluoro-propionic acid (1R,8R,12R)-12-(2-{[3-(4-methoxy-1H-benzoimidazol-2-yl)-propyl]-methyl-amino}-ethyl)-tricyclo[6.3.2.02,7]trideca-2,4,6-trien-12-yl ester]: the IC50 in assay [1] came out at 653 nM. Further, in assay [2], the 50% effective concentration (EC50) came out at 6 nM.

Turning to `CC(C)C(=O)OC1(CCN(C)CCCc2nc3ccccc3[nH]2)CC2CCCC1c1ccccc12` [Example 11A, Isobutyric acid (1S,8S,12S)-12-(2-{[3-(1H-Benzoimidazol-2-yl)-propyl]-methyl-amino}-ethyl)-tricyclo[6.3.2.0^2,7]trideca-2,4,6-trien-12-yl ester or isobutyric acid (1R,8R,12R)-12-(2-{[3-(1H-benzoimidazol-2-yl)-propyl]-methyl-amino}-ethyl)-tricyclo[6.3.2.0^2,7]trideca-2,4,6-trien-12-yl ester], the IC50 in assay [1] is 1050 nM. Moreover, it took 22 nM to reach a half-maximal effect in assay [2] (EC50).

As to `COCC(=O)O[C@@]1(CCN(C)CCCc2nc3ccccc3[nH]2)C[C@H]2CC[C@@H]1c1ccccc12` (relative stereo) [Example 1A, rac-Methoxy-acetic acid (1R*,8R*,9R*)-9-(2-{[3-(1H-benzoimidazol-2-yl)-propyl]-methyl-amino}-ethyl)-tricyclo[6.2.2.0^2,7]dodeca-2,4,6-trien-9-yl ester], the IC50 in assay [1] was 1530 nM.

For the compound `CN(CCCc1nc2ccccc2[nH]1)CC[C@]1(O)C[C@H]2CC[C@@H]1c1cc(F)c(F)cc12` (relative stereo) [Example 9, rac-(1R*,8R*,9R*)-9-(2-{[3-(1H-Benzoimidazol-2-yl)-propyl]-methyl-amino}-ethyl)-4,5-difluoro-tricyclo[6.2.2.0^2,7]dodeca-2,4,6-trien-9-ol], in assay [1], the half-inhibitory concentration (IC50) came to 1850 nM.

As for `CN(CCCc1nc2ccccc2[nH]1)CCC1(O)CC2CCCC1c1ccccc12` (single isomer, unassigned) [Example 12, (1S,8S,12S)-12-(2-{[3-(1H-Benzoimidazol-2-yl)-propyl]-methyl-amino}-ethyl)-tricyclo[6.3.2.0^2,7]trideca-2,4,6-trien-12-ol or (1R,8R,12R)-12-(2-{[3-(1H-benzoimidazol-2-yl)-propyl]-methyl-amino}-ethyl)-tricyclo[6.3.2.0^2,7]trideca-2,4,6-trien-12-ol], the IC50 in assay [1] was determined as 631 nM.

As to `CN(CCCc1nc2ccccc2[nH]1)CCC1(O)CC2CCC1c1ccccc12` (single isomer, unassigned) [Example 3, (1S,8S,9S)-9-(2-{[3-(1H-Benzoimidazol-2-yl)-propyl]-methyl-amino}-ethyl)-tricyclo[6.2.2.0^2,7]dodeca-2,4,6-trien-9-ol or (1R,8R,9R)-9-(2-{[3-(1H-benzoimidazol-2-yl)-propyl]-methyl-amino}-ethyl)-tricyclo[6.2.2.0^2,7]dodeca-2,4,6-trien-9-ol], the IC50 in assay [1] is 2250 nM.

On to `COCC(=O)O[C@@]1(CCN(C)CCCc2nc3ccccc3[nH]2)C[C@H]2CCC[C@@H]1c1ccccc12` (relative stereo) [Example 10A, rac-Methoxy-acetic acid (1R*,8R*,12R*)-12-(2-{[3-(1H-benzoimidazol-2-yl)-propyl]-methyl-amino}-ethyl)-tricyclo[6.3.2.0^2,7]trideca-2,4,6-trien-12-yl ester], for which, in assay [1], the 50% inhibitory concentration (IC50) amounted to 814 nM.

Take `CC(C)C(=O)O[C@@]1(CCN2CCCC(c3nc4ccccc4[nH]3)C2)C[C@H]2CC[C@@H]1c1ccccc12` (relative stereo) [Example 7A, Isobutyric acid (1R*,8R*,9R*)-9-{2-[(3RS)-3-(1H-benzoimidazol-2-yl)-piperidin-1-yl]-ethyl}-tricyclo[6.2.2.0^2,7]dodeca-2,4,6-trien-9-yl ester]: in assay [1], the 50% inhibitory concentration (IC50) is 1110 nM.

Take `COc1cccc2[nH]c(CCCN(C)CCC3(O)CC4CCCC3c3ccccc34)nc12` (single isomer, unassigned) [Example 13, (1S,8S,12S)-12-(2-{[3-(4-Methoxy-1H-benzoimidazol-2-yl)-propyl]-methyl-amino}-ethyl)-tricyclo[6.3.2.0^2,7]trideca-2,4,6-trien-12-ol or (1R,8R,12R)-12-(2-{[3-(4-methoxy-1H-benzoimidazol-2-yl)-propyl]-methyl-amino}-ethyl)-tricyclo[6.3.2.0^2,7]trideca-2,4,6-trien-12-ol]: in assay [1], the half-inhibitory concentration (IC50) was 1220 nM.

Consider `CN(CCCc1nc2ccccc2[nH]1)CC[C@]1(O)C[C@H]2CCC[C@@H]1c1ccccc12` (relative stereo) [Example 10, rac-(1R*,8R*,12R*)-12-(2-{[3-(1H-Benzoimidazol-2-yl)-propyl]-methyl-amino}-ethyl)-tricyclo[6.3.2.0^2,7]trideca-2,4,6-trien-12-ol], for which the IC50 in assay [1] came out at 1580 nM.

In the case of `CC(C)C(=O)O[C@@]1(CCN(C)CCCc2nc3ccccc3[nH]2)C[C@H]2CC[C@@H]1c1ccccc12` (relative stereo) [Example 1B, rac-Isobutyric acid (1R*,8R*,9R*)-9-(2-{[3-(1H-benzoimidazol-2-yl)-propyl]-methyl-amino}-ethyl)-tricyclo[6.2.2.0^2,7]dodeca-2,4,6-trien-9-yl ester], the IC50 in assay [1] came out at 2070 nM. The compound also displayed an EC50 in assay [2] of 42 nM.

The values are drawn from patent publication US8314253B2, “Bridged tetrahydronaphthalene derivatives” (Actelion Pharmaceuticals Ltd., priority 2008, dated 2012).
